Patent publication US9593305B2, “Differentiation of pluripotent stem cells” (Janssen Biotech, Inc., priority 2008, dated 2017)

Test system: H1 human embryonic stem cells
Test: Step-wise differentiation, RT-PCR of differentiation markers (Example 17, Table 15)
Format: cell-based
Experimental: Stock cultures of human embryonic stem cells (H1 human embryonic stem cell line) were maintained in an undifferentiated, pluripotent state on reduced growth factor […]™ (BD Biosciences; Cat #356231)-coated dishes in MEF conditioned medium supplemented with 8 ng/ml bFGF (PeproTech Inc.; Cat #100-18B) with passage on average every four days. Passage was performed by exposing cell cultures to a solution of 1 mg/ml dispase (Invitrogen; Cat #17105-041) for 5 to 7 minutes at 37° C. followed by rinsing the monolayer with MEF conditioned culture medium and gentle scraping to recover cell clusters. Clusters were centrifuged at low speed to collect a cell pellet and remove residual dispase. Cell clusters were split at a 1:3 or 1:4 ratio for routine maintenance culture or a 1:1 ratio for immediate assay. All human ES cell lines were maintained at passage numbers less than 50 and routinely evaluated for normal karyotype and absence of mycoplasma.
Cell clusters were evenly resuspended in MEF conditioned medium supplemented with 8 ng/ml bFGF and plated onto reduced growth factor […]™-coated 24-well, black wall culture plates (Arctic White; Cat #AWLS-303012) in volumes of 0.5 ml/well. Daily feeding was conducted by aspirating spent culture medium from each well and replacing with an equal volume of fresh medium. Plates were maintained at 37° C., 5% CO2 throughout assay.
The assay was initiated by aspirating the culture medium from each well and adding back an aliquot (0.5 ml) of test medium. Test conditions for the first step of differentiation were conducted over a three-day period, feeding daily by aspirating and replacing the medium from each well with fresh test medium. On the first day of assay, 100 ng/ml activin A (PeproTech; Cat #120-14) or 100 ng/ml GDF-8 (R&D Systems, Cat #788-G8) was added to respective assay wells where each growth factor was diluted into RPMI-1640 medium (Invitrogen; Cat #: 22400) with 2% Albumin Bovine Fraction V, Fatty Acid Free (FAF BSA) (MP Biomedicals, Inc; Cat #152401). In some samples, 20 ng/ml Wnt3a (R&D Systems; Cat #1324-WN/CF) was also included. On the second day of assay, 100 ng/mlactivin A or 100 ng/ml GDF-8 was diluted into RPMI-1640 medium supplemented with 2% FAF BSA, omitting Wnt3a from all samples. In some test samples using GDF-8, Wnt3a was replaced with a given concentration of small molecule compound, added only on the first day of definitive endoderm differentiation. […] At the conclusion of the first step of differentiation, cells from some wells were harvested for flow cytometry analysis to evaluate levels of CXCR4, a marker of definitive endoderm formation. Additional wells were harvested for RT-PCR analysis to measure other markers of differentiation.
At the conclusion of the first step of definitive endoderm differentiation, replicate sets of parallel wells from each treatment group were subjected to further step-wise differentiation. It is important to note that after the first differentiation step, all wells undergoing subsequent culture and differentiation received the same treatment. The protocol for this continuing differentiation is described below.
Step 2 of the differentiation protocol was carried out over two days. Cells were fed daily by aspirating the medium from each well and replacing with a fresh aliquot (0.5 ml) of DMEM:F12 medium (Invitrogen; Cat #11330-032) containing 2% FAF BSA, 50 ng/ml FGF7 (PeproTech; Cat #100-19), and 250 nM cyclopamine-KAAD (Calbiochem; Cat #239804).
Step 3 of the differentiation protocol was carried out over four days. […]

[1] = Step 5, cells harvested at end of step, treatment given during step one

Activin A: recombinant human activin A (PeproTech), TGF-beta family member
RT-PCR CT Values AFP (Step 1): 32.8
RT-PCR CT Values CD9 (Step 1): 25.2
RT-PCR CT Values CD99 (Step 1): 24.0
RT-PCR CT Values CDH (Step 1): 21.8
RT-PCR CT Values CDH1 (Step 1): 26.1
RT-PCR CT Values CDX2 (Step 1): 36.0
RT-PCR CT Values CER1 (Step 1): 18.3
RT-PCR CT Values CXCR4 (Step 1): 20.4
RT-PCR CT Values FGF4 (Step 1): 34.0
RT-PCR CT Values FGF17 (Step 1): 20.7
RT-PCR CT Values FOXA2 (Step 1): 25.1
RT-PCR CT Values GAPDH (Step 1): 19.4
RT-PCR CT Values GATA4 (Step 1): 25.0
RT-PCR CT Values GATA6 (Step 1): 22.9
RT-PCR CT Values GSC (Step 1): 22.4
RT-PCR CT Values HLXB9 (Step 1): 24.8
RT-PCR CT Values KIT (Step 1): 22.7
RT-PCR CT Values MIXL1 (Step 1): 28.9
RT-PCR CT Values NANOG (Step 1): 24.1
RT-PCR CT Values OTX2 (Step 1): 22.5
RT-PCR CT Values POU5F1 (Step 1): 32.2
RT-PCR CT Values SOX7 (Step 1): 32.3
RT-PCR CT Values SOX17 (Step 1): 21.6
RT-PCR CT Values T (Step 1): 36.1
RT-PCR CT Values ALB (Step 3): 26.9
RT-PCR CT Values AMY2A (Step 3): 30.6
RT-PCR CT Values ARX (Step 3): 32.0
RT-PCR CT Values CDX2 (Step 3): 22.9
RT-PCR CT Values GAPDH (Step 3): 18.5
RT-PCR CT Values GCG (Step 3): 34.1
RT-PCR CT Values HNF4A (Step 3): 22.4
RT-PCR CT Values INS (Step 3): 34.8
RT-PCR CT Values ISL1 (Step 3): 29.3
RT-PCR CT Values MAFA (Step 3): 36.4
RT-PCR CT Values MAFB (Step 3): 27.4
RT-PCR CT Values NEUROD1 (Step 3): 30.1
RT-PCR CT Values NEUROG3 (Step 3): 28.0
RT-PCR CT Values NKX2-2 (Step 3): 29.3
RT-PCR CT Values NKX2-5 (Step 3): 34.6
RT-PCR CT Values NKX6-1 (Step 3): 32.2
RT-PCR CT Values PAX4 (Step 3): 31.4
RT-PCR CT Values PAX6 (Step 3): 40.0
RT-PCR CT Values PDX1 (Step 3): 23.3
RT-PCR CT Values PECAM (Step 3): 31.0
RT-PCR CT Values POU3F4 (Step 3): 30.5
RT-PCR CT Values PTF1A (Step 3): 34.6
RT-PCR CT Values SST (Step 3): 33.2
RT-PCR CT Values ZIC1 (Step 3): 34.8
RT-PCR CT Values ALB (Step 4): 22.4
RT-PCR CT Values AMY2A (Step 4): 28.6
RT-PCR CT Values ARX (Step 4): 23.9
RT-PCR CT Values CDX2 (Step 4): 23.7
RT-PCR CT Values GAPDH (Step 4): 19.0
RT-PCR CT Values GCG (Step 4): 22.8
RT-PCR CT Values HNF4A (Step 4): 22.1
RT-PCR CT Values INS (Step 4): 23.6
RT-PCR CT Values ISL1 (Step 4): 24.1
RT-PCR CT Values MAFA (Step 4): 30.6
RT-PCR CT Values MAFB (Step 4): 23.5
RT-PCR CT Values NEUROD1 (Step 4): 23.7
RT-PCR CT Values NEUROG3 (Step 4): 23.3
RT-PCR CT Values NKX2-2 (Step 4): 24.0
RT-PCR CT Values NKX2-5 (Step 4): 31.9
RT-PCR CT Values NKX6-1 (Step 4): 27.4
RT-PCR CT Values PAX4 (Step 4): 25.7
RT-PCR CT Values PAX6 (Step 4): 27.1
RT-PCR CT Values PDX1 (Step 4): 23.7
RT-PCR CT Values PECAM (Step 4): 29.8
RT-PCR CT Values POU3F4 (Step 4): 26.5
RT-PCR CT Values PTF1A (Step 4): 29.6
RT-PCR CT Values SST (Step 4): 24.3
RT-PCR CT Values ZIC1 (Step 4): 32.5
RT-PCR CT Values ALB (Step 5): 20.2
RT-PCR CT Values AMY2A (Step 5): 27.6
RT-PCR CT Values ARX (Step 5): 22.0
RT-PCR CT Values CDX2 (Step 5): 23.4
RT-PCR CT Values GAPDH (Step 5): 18.3
RT-PCR CT Values GCG (Step 5): 14.1
RT-PCR CT Values HNF4A (Step 5): 21.3
RT-PCR CT Values INS (Step 5): 14.9
RT-PCR CT Values ISL1 (Step 5): 22.4
RT-PCR CT Values MAFA (Step 5): 31.8
RT-PCR CT Values MAFB (Step 5): 22.2
RT-PCR CT Values NEUROD1 (Step 5): 22.8
RT-PCR CT Values NEUROG3 (Step 5): 28.1
RT-PCR CT Values NKX2-2 [1]: 23.7 CT
RT-PCR CT Values NKX2-5 [1]: 34.1 CT
RT-PCR CT Values NKX6-1 [1]: 25.5 CT
RT-PCR CT Values PAX4 [1]: 27.3 CT
RT-PCR CT Values PAX6 [1]: 24.0 CT
RT-PCR CT Values PDX1 [1]: 23.2 CT
RT-PCR CT Values PECAM [1]: 30.1 CT
RT-PCR CT Values POU3F4 [1]: 28.8 CT
RT-PCR CT Values PTF1A [1]: 27.3 CT
RT-PCR CT Values SST [1]: 19.6 CT
RT-PCR CT Values ZIC1 [1]: 34.4 CT
